Results from PubChem BioAssay (NCI).
Where “and” joins values, the source holds several entries; their conditions need not be identical. Equal values may be shown once.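 Grown in 96-well plates, cells were treated for 48 hours with each compound at five concentrations. Insufficient inhibition: endpoint recorded as highest concentration tested. Here, GI50 denotes the concentration required for 50% inhibition of growth. TGI: total growth inhibition.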

Tests used:
Experiment in all cases: NCI-60 cell line screen, 48 h
RXF 393 renal = test system: RXF 393 renal
KM12 colon = test system: KM12 colon
NCI-H460 lung = test system: NCI-H460 lung
MDA-MB-435 = test system: MDA-MB-435
PC-3 prostate = test system: PC-3 prostate
NCI-H23 lung = test system: NCI-H23 lung
OVCAR-8 ovarian = test system: OVCAR-8 ovarian
OVCAR-3 ovarian = test system: OVCAR-3 ovarian
SK-MEL-2 melanoma = test system: SK-MEL-2 melanoma
MCF7 breast = test system: MCF7 breast

SMILES	TGI (RXF 393 renal)	TGI (KM12 colon)	TGI (NCI-H460 lung) [µM]	TGI (MDA-MB-435) [µM]	TGI (PC-3 prostate) [µM]	GI50 (NCI-H23 lung) [µM]	TGI (NCI-H23 lung)	TGI (OVCAR-8 ovarian)	GI50 (OVCAR-3 ovarian) [µM]	TGI (SK-MEL-2 melanoma)	TGI (OVCAR-3 ovarian) [µM]	GI50 (RXF 393 renal) [µM]	GI50 (KM12 colon) [µM]	GI50 (NCI-H460 lung) [µM]	GI50 (MDA-MB-435) [µM]	GI50 (PC-3 prostate) [µM]	GI50 (MCF7 breast) [µM]	TGI (MCF7 breast) [µM]	GI50 (OVCAR-8 ovarian) [µM]	GI50 (SK-MEL-2 melanoma) [µM]
COC(=O)[C@@H]1c2cc3c(c(O)c2[C@@H](OC2OC(C)C(OC)C(C)(OC)C2OC)C[C@]1(C)O)C(=O)c1c(O)cc2c(c1C3=O)O[C@H]1O[C@]2(C)[C@H](O)[C@@H](N(C)C)[C@@H]1O (some centres not stated)	0.0749 µM and 0.0594 µM	0.0425 µM and 0.0508 µM	0.0336	0.188	0.297	0.0141	0.0399 µM and 0.0694 µM	0.532 µM and 0.348 µM	0.0683	0.0134 µM and 0.0177 µM										
O=C1[C@H]2ON(c3ccccc3)C(c3ccc([N+](=O)[O-])cc3)[C@H]2C(=O)N1c1ccc(Cc2ccc(N3C(=O)[C@@H]4ON(c5ccccc5)C(c5ccc([N+](=O)[O-])cc5)[C@@H]4C3=O)cc2)cc1 (some centres not stated)	> 100 µM	> 100 µM	> 100				> 100 µM	> 100 µM		> 100 µM	> 100									
CC1(C)OC2C(CCP(=O)(O)O)OC(c3nc(C(N)=O)cs3)C2O1 (configuration not stated)	> 100 µM	> 100 µM	> 100				> 100 µM	> 100 µM		> 100 µM										
Nc1nc(/C=C\c2ccc([N+](=O)[O-])s2)nc(N2CCN(c3ccccc3)CC2)n1	37.2 µM	38.7 µM	59.1	43.6	63.7			52.7 µM	19	48.5 µM	35.9	18.6	16.6	24.1	19.2	21.9	14.8	49.4	22.2	21.2
Cc1nc2sccn2c1C(=O)NN	> 100 µM	> 100 µM	> 100				> 100 µM	> 100 µM		> 100 µM	> 100									
CC(C)(C)C1=CC(=C(P(=O)(O)O)P(=O)(O)O)C=C(C(C)(C)C)C1=O		> 50 µM	> 50				> 50 µM	> 50 µM		> 50 µM	> 50									
COc1ccc(C(c2ccccc2)(c2ccc(OC)cc2)N2C(=O)NC3C(CCCCC(=O)NCCCCCCOP(OCCC#N)N(C(C)C)C(C)C)SCC32)cc1 (configuration not stated)	24.2 µM	34 µM	33.8				32.3 µM	90.6 µM		24.9 µM	28.1									
CC(C)N(C(=O)C12C3C4C5(C#N)C3C1(C#N)C5C42C#N)C(C)C (configuration not stated)		> 100 µM	> 100				> 100 µM	> 100 µM		> 100 µM	> 100									
O=C(CCC(=O)Nc1ccc(Cl)c(Cl)c1)Cc1nc2ccccc2o1	> 100 µM	> 100 µM	> 100				> 100 µM	> 100 µM		> 100 µM	> 100									
CC(=O)Nc1ccc(/C=C/C(=O)c2sc(-c3cccnc3)nc2C)cc1	> 100 µM	> 100 µM	> 100				> 100 µM	> 100 µM		> 100 µM	> 100									
O=C(C(=O)c1cc2ccccc2[nH]1)c1cc2ccccc2[nH]1	> 347 µM	> 347 µM	> 347				> 347 µM	> 347 µM		> 347 µM	95.7									
OCC1C(OCc2ccccc2)C(OCc2ccccc2)C(OCc2ccccc2)CN1Cc1ccccc1 (configuration not stated)	48.4 µM	> 100 µM	48.1	> 100	88.1		53.3 µM	> 100 µM			> 100							43.9		
